For one data set, the system named is P. dumerilii embryos. The data set is described as follows: Developmental toxicity assay with P. dumerilii embryos, dilution factor of in-use concentration (EC50,DF), also after degradation in darkness. The class given is in vivo, Platynereis dumerilii. The conditions noted are these: for Normal development: PCMX. The source says:
The DBP doses for 3-log E. coli reduction (pH 7.2) were set as the in-use concentrations, which were serially diluted and added to the P. dumerilii embryos at 12-h postfertilization. A dilution factor was defined as the ratio of the in-use concentration to the exposure concentration. Each exposure set contained a control sample (i.e., the embryos at 12-h postfertilization developed in seawater without the addition of DBPs). By 24-h postfertilization, normally developed embryos should have reached the first larval stage. An inverted stereomicroscope (×40 magnification) was used to observe the larvae. The normal development percentage was calculated as the ratio of normally developed embryos to total embryos. By plotting the curve of the normal development percentage versus the dilution factor, the EC50,DF value (i.e., the dilution factor corresponding to 50% of the normal development percentage of the control sample) was obtained using SigmaPlot 12. The developmental toxicity test was conducted in duplicate.

The next data set relates to S. aureus (ATCC 25923). The data set is described as follows: Inactivation of S. aureus (contact time 5 min). The class given is cell-based, Staphylococcus aureus. The conditions noted are these: for log reduction at 300 µg/mL: Staphylococcus aureus, ATCC25923, 5 min, dose 300 mg L-1, pH 7.2, contact time 5 min. As for the experimental part: The chemicals and reagents used are detailed in Supplementary Note 1. The bacteria E. coli (ATCC 25922) and S. aureus (ATCC 25923) were cultured aerobically in Luria-Bertani broth (Sigma-Aldrich) and Tryptone Soya broth (Oxoid), respectively, at 37 °C for 16 h. The fungus C. albicans (ATCC 14053) was aerobically cultured in Sabouraud Dextrose broth (Difco) at 37 °C for 24 h. The microorganism cells were harvested by centrifugation at 1200×g (10 min, 4 °C) and resuspended in phosphate-buffered saline (PBS, 10 mM, pH 7.2). The disinfection experiments were performed in PBS solutions (10 mM, pH 7.2) with an initial concentration of E. coli, S. aureus, or C. albicans of 10^6‒10^7 cells per milliliter. A contact time of 5 min was used in accordance with the recommended time range of 0.25–10 min by USEPA for surface disinfection. Preliminary tests were conducted to determine the appropriate range of DBP doses. The appropriate dose range was established when the lowest and highest doses could achieve <1-log and >3-log of microbial inactivation, respectively. Based on the preliminary results, a series of doses of DBPs were added to the cell suspensions at room temperature (22 ± 1 °C). After the contact time of 5 min, the microorganism cells were enumerated following a membrane filter method. Briefly, serial 10-fold dilutions were conducted for the disinfected samples and the control sample without disinfection. Each diluted suspension was subjected to filtration through 0.45-μm membrane, which was then placed on a petri dish. The Petri dishes containing E. coli, S. aureus, and C. albicans were incubated in m-FC medium (Becton Dickinson & Co) at 45 °C for 24 h, in Tryptone Soya broth at 37 °C for 24 h and in Sabouraud Dextrose broth at 37 °C for 24 h, respectively. After incubation, the colony-forming units within a statistically reasonable range (20–80) were counted.

Data set [1] can be described thus: Degradation in seawater with simulated solar irradiation. To be noted: for half-life at 10 mg L−1: pH 8.2; for Ln (C/C0): seawater pH 8.2, solar irradiation, 0 h. Here is the method: The solar photolysis experiments were conducted in a chamber equipped with eight simulated sunlight full-spectrum lamps (BlueMax 5900, Full Spectrum Solutions). The temperature in the chamber was maintained at 20 °C. The total intensity of simulated sunlight was determined using a digital photometer (DT-1010B, Shenzhen Golden Octopus, China). Quartz flasks were positioned in the chamber where the total intensity of simulated sunlight was 4.79 ± 0.04 mW cm^−2 for each quartz flask. […] A DBP was added at 10 mg L^−1 to 50 mL pretreated seawater (pH 8.2) in the quartz flasks and exposed to the simulated solar irradiation for 0‒96 h. Every 8 h, the quartz flasks were rotated in and out of the chamber, and the sample volume was determined and adjusted with ultrapure water to account for any water evaporation. During the solar irradiation experiments, the sample was adjusted to pH 6.2 and 7.2 or maintained at pH 8.2 by adding 4 mM phosphate buffer (pH 6.2, 7.2, and 8.2, respectively).
(§1) For the DBP samples with and without sunlight, aliquots were taken at a specific reaction time. The sample aliquots were analyzed using Agilent high-performance liquid chromatography (HPLC) equipped with a Poroshell 120 EC-C18 column (4.6 × 150 mm, 4 µm particle size, Agilent) and a UV detector. The mobile phase, consisting of water (pre-adjusted to pH 2 with phosphoric acid) and acetonitrile at 50/50 (v/v), was applied at a flow rate of 1.0 mL min^−1. PCMX, 2,4-dihalophenols and 5-halosalicylic acids were detected at the wavelength of 230 nm. 2,5-Dihalohydroquinones and 2,6-DCQ were detected at the wavelength of 280 nm. All the degradation experiments were conducted in duplicate.

Data set [2] can be described thus: Degradation in seawater in darkness (pH 6.2, 7.2, 8.2). To be noted: for Ln (C/C0): seawater pH 8.2, darkness. Here is the method: To study the DBP degradation in seawater in darkness, a DBP was added at 10 mg L^−1 to 50 mL pretreated seawater (pH 8.2) in the quartz flasks. The flasks were wrapped with aluminum foil to simulate the dark condition. The samples were kept at 20 °C in darkness for 0‒120 h, during which the sample was adjusted to pH 6.2 and 7.2 or maintained at pH 8.2 by adding 4 mM phosphate buffer (pH 6.2, 7.2, and 8.2, respectively).
as §1

[3] abbreviates: pH 7.2, S. aureus, read-out: Log (N/N0).

Structures are written as SMILES. Several values for one entry are separate records, joined by “and”; a condition that tells them apart may be missing. Equal values may be shown once. Read-outs that look alike come from different tables or passages of the source.

For the compound `Cc1cc(O)cc(C)c1Cl` [PCMX, para-chloro-meta-xylenol, reference compound], the Normal development in the data set on P. dumerilii embryos (degradation 0 h, dilution factor 6.7143) is 0%; in the data set on P. dumerilii embryos (degradation 0 h, dilution factor 7.2308) it was 4.232% and 2.756%; in the data set on P. dumerilii embryos (degradation 0 h, dilution factor 7.6735) it was 25.4292% and 17.7492%; in the data set with P. dumerilii embryos (degradation 0 h, dilution factor 8.1739), 29.4152% and 29.5272%; in the data set on P. dumerilii embryos (degradation 0 h, dilution factor 8.7442) it was 46.2529% and 46.0367%; in the data set with P. dumerilii embryos (degradation 0 h, dilution factor 9.4), 56.894% and 62.197%. The Normal development in the data set on P. dumerilii embryos (degradation 0 h, dilution factor 10.4444) is 76.1488% and 70.708%; with P. dumerilii embryos (degradation 0 h, dilution factor 11.75), 84.2318% and 84.1758%; in the data set on P. dumerilii embryos (degradation 48 h, dilution factor 6.7143) it was 0%; with P. dumerilii embryos (degradation 48 h, dilution factor 7.2308), 0%; with P. dumerilii embryos (degradation 48 h, dilution factor 7.6735), 5.72% and 1.379%; with P. dumerilii embryos (degradation 48 h, dilution factor 8.1739), 20.3803% and 14.4749%. The Normal development was 43.6056% and 44.3682% in the data set on P. dumerilii embryos (degradation 48 h, dilution factor 8.7442); 43.7739% and 49.5131% in the data set on P. dumerilii embryos (degradation 48 h, dilution factor 9.4); 54.207% and 47.1234% in the data set on P. dumerilii embryos (degradation 48 h, dilution factor 10.4444); 73.3565% and 68.3577% in the data set on P. dumerilii embryos (degradation 48 h, dilution factor 11.75). For the same compound, the “Normal development (%)” value with P. dumerilii embryos (dilution factor 6.7143 of in-use concentration) is 0%; in the data set with P. dumerilii embryos (dilution factor 7.2308) it was 4.232% and 2.756%; in the data set with P. dumerilii embryos (dilution factor 7.6735) it was 25.4292% and 17.7492%; with P. dumerilii embryos (dilution factor 8.1739), 29.4152% and 29.5272%; with P. dumerilii embryos (dilution factor 8.7442) it was 46.0367% and 46.2529%; in the data set with P. dumerilii embryos (dilution factor 9.4) it was 62.197% and 56.894%. For the same compound, the “Normal development (%)” value was 76.1488% and 70.708% in the data set on P. dumerilii embryos (dilution factor 10.4444); 84.2038% in the data set with P. dumerilii embryos (dilution factor 11.75). In the data set with S. aureus (ATCC 25923) (setting [3]), the log reduction at 300 µg/mL worked out at 3.04. Further, the “Dose for achieving 3-log inactivation of S. aureus” value with S. aureus (ATCC 25923) (pH 7.2, contact time 5 min) amounted to 308 mg L−1. For the same compound, in the data set with S. aureus (ATCC 25923) (pH 7.2, contact time 5 min), the “S. aureus inactivation rate constant k” value is 3670 µL/min/mg. The half-life at 10 mg L−1 in data set [1] (pretreated seawater under simulated solar irradiation) was 257 h; in data set [2] (pretreated seawater in darkness), roughly 240 days. The “Ln (C/C0)” value in data set [1] and in data set [2] (0 h) was 0 throughout. Also, the “Degradation in 120 h” value in data set [2] (seawater, absence of sunlight) is “less than 5%”.
On to `Oc1ccc(Cl)cc1Cl` [2,4-DCPh, 2,4-Dichlorophenol], for which the “Normal development (%)” value is 0% in the data set on P. dumerilii embryos (dilution factor 9.6524); 7.691% and 7.509% in the data set on P. dumerilii embryos (dilution factor 13.1623); 35.5728% and 39.4272% in the data set on P. dumerilii embryos (dilution factor 16.0873); 55.5625% and 48.4375% with P. dumerilii embryos (dilution factor 20.6836); 80.2893% and 76.7107% with P. dumerilii embryos (dilution factor 28.9571); 81.6957% and 84.3043% in the data set on P. dumerilii embryos (dilution factor 57.9141). The log reduction at 300 µg/mL with S. aureus (ATCC 25923) (pH 7.2, read-out: Log (N/N0), S. aureus) was 0.626. This compound also showed a half-life at 10 mg L−1 in data set [1] (buffer) of 45 h. The “Ln (C/C0)” value is 0 in data set [1]; 0 in data set [2] (0 h); 0.008094 and 0.006005 in data set [2] (24 h); 0.007156 and 0.006397 in data set [2] (48 h).
`Oc1ccc(I)cc1I` [2,4-DIPh, 2,4-diiodophenol]: the “Normal development (%)” value with P. dumerilii embryos (dilution factor 14.7221) is 3.475% and 5.221%; in the data set on P. dumerilii embryos (dilution factor 16.1943), 15.5532% and 11.251%; in the data set on P. dumerilii embryos (dilution factor 17.0467), 28.4871% and 30.5605%; with P. dumerilii embryos (dilution factor 17.9937) it was 62.9083% and 58.6107%; with P. dumerilii embryos (dilution factor 19.0522), 71.0249% and 62.3085%; in the data set on P. dumerilii embryos (dilution factor 21.5924), 85.4546% and 82.7272%. The log reduction at 300 µg/mL with S. aureus (ATCC 25923) (setting [3]) amounted to 4.49. In addition, the half-life at 10 mg L−1 in data set [1] (buffer) is 83 h. In addition, the “Ln (C/C0)” value in data set [1] was 0; in data set [2] (0 h) it was 0; in data set [2] (24 h), 0.00447 and 0.004669; in data set [2] (48 h), 0.01674 and 0.0143.

These data come from paper PMC11161644, “An effective and rapidly degradable disinfectant from disinfection byproducts” (Nature Communications, 2024).
